According to US9938324B2, “FRET-based reagents and methods for identifying anti-HIV compounds” (Cornell University, priority 2012, dated 2018):

How the values were obtained:
[1] = tested on: HIV-1 EnvNL4-3; experiment: smFRET imaging of dually labelled HIV-1 Env on surface-immobilized virions (TIRF); format: biochemical, HIV-1NL4-3; conditions: for agonist/antagonist character by smFRET (activation of HIV-1 Env): 100 μM, FIG. 10c, d; for effect of inhibitor on smFRET state distribution of HIV-1 Env: tested at concentrations 10-100-fold above the Kd (100 μM), FIG. 10
Protocol: All HIV-1 virions were generated by transfection of pNL4-3-based plasmids in HEK293T cells. Virus was harvested 24 h post-transfection and concentrated by centrifugation. Dually tagged viruses were site-specifically labelled at each peptide insert simultaneously through incubation with appropriate fluorophore conjugates and labelling enzymes. The viruses were purified away from unbound dye by density-gradient ultracentrifugation. Viruses were immobilized on streptavidin-coated quartz microscope slides, and imaged with a lab-built prism-based TIRF microscope equipped with multiple laser. Donor and acceptor fluorescence were separated with a dichroic filter, and imaged on parallel EMCCD cameras. All analysis was carried out with custom-designed Matlab software.
The tagged Envs (V1-3-Q3/V4-2-A1 and V1-3-A1/V4-2-A1) were subcloned from pNL4-3 into a pNL4-3 construct lacking reverse transcriptase (pNL4-3 ΔRT). Virus for smFRET experiments was generated by co-transfecting HEK293T cells with tagged-Env-containing pNL4-3 ΔRT and a 40-fold excess of wild-type-Env containing pNL4-3 ΔRT. Virus was harvested 24 h post-transfection and concentrated by centrifugation over a 15% sucrose cushion.
All virus labelling reactions were carried out in buffer containing 50 mM HEPES pH7.5, 10 mM MgCl2, 10 mM CaCl2. Virus containing the V1-3-Q3 and V4-2-A1 peptide insertions was labelled by incubation with 0.5 μM AlexaFluor647-cadaverine (Invitrogen), 0.5 μM Cy3-coenzyme A (Cy3-CoA), 0.65 μM transglutaminase (Sigma) (Lin et al., J Am Chem Soc 128, no. 14 (2006): 4542-3), and 5 μM AcpS (Zhou et al., ACS Chem Biol 2, no. 5 (2007): 337-46) for 2 h at 37° C. Alternatively, virus containing the V1-3-A1 and V4-2-A1 peptide insertions was labelled by incubation with 0.5 μM Cy5-CoA, 0.5 μM Cy3-CoA, and 5 μM AcpS for 2 h at 37° C. […]
Fluorescently labelled virus, containing DSPE-PEG2,000-biotin in the viral membrane was immobilized on passivated streptavidin-coated quartz microscope slides and imaged on a lab-built prism-based TIRF microscope. […] Donor and acceptor fluorescence were collected through a high-NA objective, separated with a 650DCXR dichroic filter (Chroma), and imaged on two parallel EMCCD cameras (Photometrics). Movies of surface-immobilized viruses were recorded at 25 frames/s for 40 s at room temperature. […]
All processing and analysis of fluorescence and smFRET trajectories was carried out using custom-designed Matlab (Mathworks) software. Fluorescence trajectories were extracted from the recorded movies and used to calculate FRET efficiency according to FRET=ICy5/(ICy3+ICy5), where ICy5 and ICy3 are the intensities of Cy5 and Cy3 fluorescence, respectively. […]

[2] = target: HIV-1 Env (Human immunodeficiency virus type 1 group M subtype B, UniProt P03375); conditions: cited from earlier work
Sequence of HIV-1 Env (P03375 33-856): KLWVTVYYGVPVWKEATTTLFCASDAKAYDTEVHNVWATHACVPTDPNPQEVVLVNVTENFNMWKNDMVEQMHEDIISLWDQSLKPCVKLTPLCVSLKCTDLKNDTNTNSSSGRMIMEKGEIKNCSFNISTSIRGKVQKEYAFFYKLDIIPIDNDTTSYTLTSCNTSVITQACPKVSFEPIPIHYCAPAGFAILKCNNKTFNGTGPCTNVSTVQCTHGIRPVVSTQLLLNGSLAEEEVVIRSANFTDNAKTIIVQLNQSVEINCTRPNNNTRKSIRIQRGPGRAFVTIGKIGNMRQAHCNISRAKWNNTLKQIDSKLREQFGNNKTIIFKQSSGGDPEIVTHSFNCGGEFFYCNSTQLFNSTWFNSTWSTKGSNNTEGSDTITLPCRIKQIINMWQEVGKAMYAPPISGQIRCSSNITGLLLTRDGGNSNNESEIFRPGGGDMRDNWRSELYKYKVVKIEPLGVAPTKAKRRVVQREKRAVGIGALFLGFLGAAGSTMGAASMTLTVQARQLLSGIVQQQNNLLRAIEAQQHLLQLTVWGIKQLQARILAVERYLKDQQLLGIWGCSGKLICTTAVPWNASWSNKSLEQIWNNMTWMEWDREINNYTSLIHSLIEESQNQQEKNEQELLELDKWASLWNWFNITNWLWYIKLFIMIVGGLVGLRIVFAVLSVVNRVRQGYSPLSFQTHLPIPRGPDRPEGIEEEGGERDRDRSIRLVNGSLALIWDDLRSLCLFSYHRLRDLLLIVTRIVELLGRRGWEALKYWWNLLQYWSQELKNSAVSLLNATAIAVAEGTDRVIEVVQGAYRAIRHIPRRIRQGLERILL

SMILES	agonist/antagonist character by smFRET (activation of HIV-1 Env) [1]	effect of inhibitor on smFRET state distribution of HIV-1 Env [1]	inactivation of HIV-1 Env [2]
CC1(C)CC(NC(=O)C(=O)Nc2ccc(Cl)c(F)c2)CC(C)(C)N1 [JRC-II-191]	clear agonists	induced an intermediate-FRET state	inactivate
CC1(C)CC(NC(=O)C(=O)Nc2ccc(Cl)cc2)CC(C)(C)N1 [NBD-556]	clear agonists	induced an intermediate-FRET state	
